# Measurements as given in patent US20230123334A1, “AMINO LIPID COMPOUND, PREPARATION METHOD THEREFOR, AND APPLICATION THEREOF” (SHENZHEN SHENXIN BIOTECHNOLOGY CO., LTD., priority 2020, published 2023).
# Key:
# Type in all cases: cell-based
# HEK293 cells [1] = experiment: Preliminary screening as DNA vectors, GFP transfection of HEK293 cells; conditions: HEK293 cells; lipid/DOPE liposome with 75 ng plasmid DNA (psin-EGFP-IRES-Puro); number of cells expressing GFP divided by total number of nuclei (Hoechst)
# Summary of the method: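 HEK293 cells in DMEM/10% FBS transfected with 75 ng EGFP plasmid per well complexed with amino lipid/DOPE liposomes in pH 5.6 sodium acetate. Hoechst nuclear stain added 20-24 h post-transfection, then cells cultured another 20-24 h. Confocal imaging gives GFP-positive cells as % of total nuclei.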
# HEK293 cells [2] = experiment: Preliminary screening as mRNA vectors, EGFP mRNA transfection of HEK293 cells; conditions: HEK293 cells, 96-well plates, EGFP mRNA 50 ng per well; percentage of GFP fluorescent cells relative to total number of cells (Hoechst)
# Summary of the method: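 HEK293 cells in DMEM plus 10% FBS transfected in 96-well format with 50 ng EGFP mRNA per well; Lipofectamine2000 served as positive control. Read-out is the percentage of GFP-fluorescent cells among total cells, counted by Hoechst nuclear stain.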
# Hela cells [3] = experiment: Transfection of Hela cell line, DNA vectors; conditions: 75 ng plasmid DNA, GFP cells / total cells
# Summary of the method: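 Amino lipid/DOPE liposomes in sodium acetate pH 5.6 were complexed with 75 ng psin-EGFP-IRES-Puro plasmid for 30 min at room temperature, then mixed with 3-5×10^4 Hela cells in DMEM/10% FBS at 37° C. Hoechst stain after 20-24 h, imaging after a further 20-24 h. Efficiency = GFP-positive cells / total nuclei.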
# Hela cells [4] = experiment: Transfection of Hela cell line, mRNA vectors; conditions: 50 ng EGFP mRNA per well
# Summary of the method: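 HeLa cells in DMEM with 10% FBS transfected with 50 ng EGFP mRNA per well. Readout is percentage of GFP-positive cells among total cells counted by Hoechst nuclear stain; Lipofectamine2000 served as positive control.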
# MCF7 cells [5] = experiment: Transfection of MCF7 cell line, DNA vectors; design: concentration or dose not given beside the values; conditions: plasmid DNA, GFP cells / total cells
# Summary of the method: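 MCF7 cells in DMEM with fetal bovine serum were transfected in 96-well format. Read-out was the percentage of GFP-fluorescent cells among total cells counted by Hoechst nuclear stain. Lipofectamine2000 served as positive control.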
# MCF7 cells [6] = experiment: Transfection of MCF7 cell line, mRNA vectors; conditions: 50 ng EGFP mRNA per well
# Summary of the method: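 MCF7 cells in DMEM with fetal bovine serum were transfected with 50 ng EGFP mRNA per well. Read-out was the percentage of GFP-positive cells among total Hoechst-stained nuclei, with Lipofectamine2000 as positive control.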
# [7] = system: embryonic stem cells (hESC2); experiment: Screening as DNA vectors in embryonic stem cells, flow cytometry; conditions: 75 ng plasmid DNA, 48 hours after transfection, flow cytometer
# Summary of the method: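 hESC2 cells in mTeSR1 on matrigel transfected with 75 ng pSin-EGFP-IRES-Puro complexed with amino lipid/DOPE liposomes formed in sodium acetate pH 5.6; 37 °C, 5% CO2. After 48 h, GFP-positive cells counted by flow cytometry (≥2000 cells), efficiency also expressed relative to Lipofectamine Stem.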
# [8] = system: embryonic stem cells (hESC2); experiment: Screening as mRNA vectors in embryonic stem cells; conditions: 50 ng EGFP mRNA per well
# Summary of the method: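 EGFP mRNA (50 ng per well) transfected into hESC2 cells grown in mTeSR1; Lipofectamine Stem served as positive control. Read-out: GFP-fluorescent cells as percentage of total cells.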
# cardiomyocytes [9] = experiment: Screening as DNA vectors in cardiomyocytes; design: concentration or dose not given beside the values; conditions: method as Example 4
# Summary of the method: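 hESC-derived cardiomyocytes in DMEM with 10% FBS were transfected with a GFP DNA vector; Lipofectamine Stem served as positive control. Read-out: percentage of GFP-positive cells relative to total cells counted by Hoechst nuclear stain.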
# cardiomyocytes [10] = experiment: Screening as mRNA vectors in cardiomyocytes; conditions: 50 ng EGFP mRNA per well
# Summary of the method: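 Cardiomyocytes differentiated from hESC, in DMEM with 10% FBS, were transfected with 50 ng EGFP mRNA per well. The read-out was GFP-positive cells as a percentage of Hoechst-stained nuclei, with Lipofectamine Stem as positive control.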
Structure (SMILES),Absolute DNA transfection efficiency in HEK293 cells (HEK293 cells [1]),Absolute mRNA transfection efficiency in HEK293 cells (HEK293 cells [2]),Absolute DNA transfection efficiency in Hela cells (Hela cells [3]),Absolute mRNA transfection efficiency in Hela cells (Hela cells [4]),Absolute DNA transfection efficiency in MCF7 cells (MCF7 cells [5]),Absolute mRNA transfection efficiency in MCF7 cells (MCF7 cells [6]),Absolute DNA transfection efficiency in embryonic stem cells [7],Absolute mRNA transfection efficiency in embryonic stem cells [8],Absolute DNA transfection efficiency in cardiomyocytes (cardiomyocytes [9]),Absolute mRNA transfection efficiency in cardiomyocytes (cardiomyocytes [10])
CCCCCCCCCCCCSc1nc(NCC2CCN(C)CC2)nc(SCCCCCCCCC)n1 [Compound S9S12D10],17.9%,82.9%,8.9%,8.9%,46.0%,40.9%,14.0%,25.4%,2.9%,3.8%
CCCCCCCCCCCCSc1nc(NCCCN2CCOCC2)nc(SCCCCCCCCC)n1 [Compound S9S12D8],30.4%,13.8%,15.8%,15.8%,7.7%,12.6%,11.1%,1.7%,5.8%,0.9%
CCCCCCCCCCCCSc1nc(NCCN2CCN(C)CC2)nc(SCCCCCCCCC)n1 [Compound S9S12D5],21.0%,57.5%,10.8%,10.8%,32.0%,27.3%,4.6%,27.3%,1.7%,1.2%
CCCCCCCCCCCCSc1nc(NCCCN(C)C)nc(SCCCCCCCCC)n1 [Compound S9S12D6],20.2%,61.6%,10.9%,10.9%,34.2%,50.4%,10.5%,9.3%,3.3%,9.5%
CCCCCCCCCCCCCCSc1nc(NCC2CCN(C)CC2)nc(SCCCCCCCCC)n1 [Compound S9S14D10],14.5%,91.0%,7.2%,7.5%,50.5%,50.3%,0.7%,23.1%,7.6%,34.4%
CCCCCCCCCCCCSc1nc(NCCCN2CCN(C)CC2)nc(SCCCCCCCCC)n1 [Compound S9S12D9],39.3%,60.9%,19.6%,19.6%,33.8%,5.1%,7.6%,20.6%,5.9%,69.3%
